Data: ChEMBL document CHEMBL3217722, “Synthesis of hybrid 4-anilinoquinoline triazines as potent antimalarial agents, their in silico modeling and bioevaluation as Plasmodium falciparumtransketolase and -hematin inhibitors” (Medchemcomm, 2012)
Values after ≈ are worked out from the molar mass of the structure shown. Active and inactive are the calls of the source. No cut-off for these calls is given here.

Legend:
[1] = test system: Plasmodium falciparum; experiment: Antiplasmodial activity against chloroquine-sensitive Plasmodium falciparum 3D7 after 72 hrs by SYBR Green-1 dye-based fluorescence assay; type: functional, organism-based; conditions: 3D7, 72 h
[2] = test system: Plasmodium falciparum; experiment: Antiplasmodial activity against chloroquine-resistant Plasmodium falciparum K1 after 72 hrs by SYBR Green-1 dye-based fluorescence assay; type: functional, organism-based; conditions: K1, 72 h
[3] = Selectivity index, ratio of IC50 for African green monkey Vero cells to IC50 for Plasmodium falciparum; type: toxicity, cell-based; conditions: read-out: Ratio IC50
[4] = test system: Plasmodium yoelii; experiment: Inhibition of beta-hematin formation in Plasmodium yoelii infected Swiss mouse plasma after 16 hrs; type: functional
[5] = Inhibition of Plasmodium falciparum transketolase using fructose-6-phosphate as substrate by spectrophotometric analysis
[6] = test system: Plasmodium yoelii; experiment: Antimalarial activity against chloroquine-resistant Plasmodium yoelii N-67 infected in Swiss mouse assessed as inhibition of parasitemia at 50 mg/kg, po qd for 4 days relative to control; type: functional; conditions: N-67, 96 h
[7] = test system: Plasmodium yoelii; experiment: Antimalarial activity against chloroquine-resistant Plasmodium yoelii N-67 infected in Swiss mouse assessed as inhibition of parasitemia at 100 mg/kg, po qd for 4 days relative to control; type: functional; conditions: N-67, 96 h
[8] = test system: Plasmodium yoelii; experiment: Antimalarial activity against chloroquine-resistant Plasmodium yoelii N-67 infected in Swiss mouse assessed as mouse survival at 100 mg/kg, po qd for 4 days measured on day 28; type: functional, organism-based; parameters: dose 100 mg/kg
[9] = test system: Plasmodium yoelii; experiment: Antimalarial activity against chloroquine-resistant Plasmodium yoelii N-67 infected in Swiss mouse assessed as mouse survival at 50 mg/kg, po qd for 4 days measured on day 28; type: functional, organism-based; parameters: dose 50 mg/kg

SMILES	IC50 [1] [µg/mL]	IC50 [2] [µg/mL]	selectivity ratio [3]	IC50 [4] [µg/mL]	IC50 [5] [µM]	inhibition in vivo at 50 mg/kg [6] [%]	inhibition in vivo at 100 mg/kg [7] [%]	Activity [8]	Activity [9]
Clc1cccc(Nc2nc(NCCCN3CCOCC3)nc(Nc3ccc(Nc4ccnc5cc(Cl)ccc45)cc3)n2)c1	0.00382 (≈ 0.0062 µM)	0.00882 (≈ 0.0143 µM)	180	4.56 (≈ 7.4 µM)	76.4				
CCN1CCN(c2nc(Nc3ccc(Nc4ccnc5cc(Cl)ccc45)cc3)nc(Nc3cccc(OC)c3)n2)CC1	0.0089 (≈ 0.0153 µM)		73	2.25 (≈ 3.87 µM)					
Fc1cccc(Nc2nc(Nc3ccc(Nc4ccnc5cc(Cl)ccc45)cc3)nc(N3CCCCC3)n2)c1	0.129 (≈ 0.238 µM)	0.107 (≈ 0.197 µM)	75.1	3.1 (≈ 5.73 µM)					
CCN1CCN(c2nc(Nc3ccc(Nc4ccnc5cc(Cl)ccc45)cc3)nc(Nc3cccc(F)c3)n2)CC1	0.00247 (≈ 0.00433 µM)		149	2.06 (≈ 3.61 µM)	75				
CN1CCN(c2nc(Nc3ccc(Nc4ccnc5cc(Cl)ccc45)cc3)nc(N3CCOCC3)n2)CC1	0.00322 (≈ 0.00605 µM)	0.00286 (≈ 0.00538 µM)	121	6.5 (≈ 12.2 µM)					
COc1ccc(Nc2nc(NCCCN3CCOCC3)nc(Nc3ccc(Nc4ccnc5cc(Cl)ccc45)cc3)n2)cc1	0.00381 (≈ 0.00622 µM)	0.155 (≈ 0.253 µM)	1310	2.34 (≈ 3.82 µM)	72.7				
Fc1ccc(Nc2nc(NCCCN3CCOCC3)nc(Nc3ccc(Nc4ccnc5cc(Cl)ccc45)cc3)n2)cc1	0.0158 (≈ 0.0264 µM)		682	2.17 (≈ 3.62 µM)					
Clc1ccc2c(Nc3ccc(Nc4nc(NCCN5CCOCC5)nc(N5CCc6ccccc6C5)n4)cc3)ccnc2c1	0.0452 (≈ 0.0743 µM)		1160	2.08 (≈ 3.42 µM)					
CN1CCN(c2nc(Nc3ccc(Nc4ccnc5cc(Cl)ccc45)cc3)nc(Nc3cccc(F)c3)n2)CC1	0.0228 (≈ 0.041 µM)	0.00154 (≈ 0.00277 µM)	55.3	3.03 (≈ 5.45 µM)		99.8	100	inactive	inactive
O=C(O)C(=O)Cc1ccc(O)cc1 [4-HYDROXYPHENYLPYRUVIC ACID]					103				
Clc1ccc2c(Nc3ccc(Nc4nc(NCCCN5CCOCC5)nc(N5CCOCC5)n4)cc3)ccnc2c1	0.00276 (≈ 0.00479 µM)	0.00266 (≈ 0.00462 µM)	3320	2.98 (≈ 5.17 µM)		98.4	100		inactive
Fc1ccc(Nc2nc(Nc3ccc(Nc4ccnc5cc(Cl)ccc45)cc3)nc(N3CCCCC3)n2)cc1	0.0417 (≈ 0.0772 µM)	> 0.5	520	2.43 (≈ 4.49 µM)					
Clc1ccc(Nc2nc(NCCCN3CCOCC3)nc(Nc3ccc(Nc4ccnc5cc(Cl)ccc45)cc3)n2)cc1	0.00463 (≈ 0.00751 µM)	0.00858 (≈ 0.0139 µM)	482	2.25 (≈ 3.65 µM)					
CCN1CCN(c2nc(Nc3ccc(Nc4ccnc5cc(Cl)ccc45)cc3)nc(N3CCOCC3)n2)CC1	0.00216 (≈ 0.00396 µM)	0.0147 (≈ 0.0269 µM)	431	4.17 (≈ 7.64 µM)		93.5	100	inactive	inactive
Fc1ccc(Nc2nc(NCCN3CCOCC3)nc(Nc3ccc(Nc4ccnc5cc(Cl)ccc45)cc3)n2)cc1	0.00981 (≈ 0.0167 µM)	0.0954 (≈ 0.163 µM)	1330	2.38 (≈ 4.06 µM)			100	inactive	
CCN1CCN(c2nc(Nc3ccc(Nc4ccnc5cc(Cl)ccc45)cc3)nc(N3CCc4ccccc4C3)n2)CC1	0.0121 (≈ 0.0205 µM)	0.116 (≈ 0.196 µM)	75.9	2.25 (≈ 3.8 µM)					
COc1ccc(Nc2nc(Nc3ccc(Nc4ccnc5cc(Cl)ccc45)cc3)nc(N3CCN(C)CC3)n2)cc1OC	0.00504 (≈ 0.00843 µM)	0.00486 (≈ 0.00813 µM)	169	3.05 (≈ 5.1 µM)					
Fc1cccc(Nc2nc(NCCCN3CCOCC3)nc(Nc3ccc(Nc4ccnc5cc(Cl)ccc45)cc3)n2)c1	0.00136 (≈ 0.00227 µM)	0.00571 (≈ 0.00952 µM)	551	2.06 (≈ 3.43 µM)	76.7		100	inactive	
CN1CCN(c2nc(Nc3ccc(Nc4ccnc5cc(Cl)ccc45)cc3)nc(Nc3cccc(Cl)c3)n2)CC1	0.00241 (≈ 0.00421 µM)	0.0169 (≈ 0.0295 µM)	361	2.42 (≈ 4.23 µM)	80.2				

SMILES	IC50 [1] [µg/mL]	IC50 [2] [µg/mL]	selectivity ratio [3]	IC50 [4] [µg/mL]	IC50 [5] [µM]	inhibition in vivo at 50 mg/kg [6] [%]	inhibition in vivo at 100 mg/kg [7] [%]	Activity [8]	Activity [9]
CN1CCN(c2nc(Nc3ccc(Nc4ccnc5cc(Cl)ccc45)cc3)nc(N3CCCc4ccccc43)n2)CC1	0.0126 (≈ 0.0219 µM)	0.0682 (≈ 0.118 µM)	74.4	2.48 (≈ 4.29 µM)					
CN1CCN(c2nc(Nc3ccc(Cl)cc3)nc(Nc3ccc(Nc4ccnc5cc(Cl)ccc45)cc3)n2)CC1	0.0078 (≈ 0.0136 µM)	0.0352 (≈ 0.0614 µM)	66.7	2.17 (≈ 3.79 µM)			100	inactive	
COc1cccc(Nc2nc(Nc3ccc(Nc4ccnc5cc(Cl)ccc45)cc3)nc(N3CCN(C)CC3)n2)c1	0.00426 (≈ 0.0075 µM)		117	2.05 (≈ 3.61 µM)					
CCN1CCN(c2nc(Nc3ccc(Cl)cc3)nc(Nc3ccc(Nc4ccnc5cc(Cl)ccc45)cc3)n2)CC1	0.00414 (≈ 0.00706 µM)	0.00981 (≈ 0.0167 µM)	67.6	2.05 (≈ 3.5 µM)					
CN1CCN(c2nc(Nc3ccc(Nc4ccnc5cc(Cl)ccc45)cc3)nc(N3CCc4ccccc4C3)n2)CC1	0.0281 (≈ 0.0486 µM)		48.4	2.81 (≈ 4.86 µM)					
Fc1cccc(Nc2nc(NCCN3CCOCC3)nc(Nc3ccc(Nc4ccnc5cc(Cl)ccc45)cc3)n2)c1	0.04 (≈ 0.0683 µM)	0.0781 (≈ 0.133 µM)	122	2.7 (≈ 4.61 µM)					
CCN1CCN(c2nc(Nc3ccc(F)cc3)nc(Nc3ccc(Nc4ccnc5cc(Cl)ccc45)cc3)n2)CC1	0.0111 (≈ 0.0195 µM)	0.0198 (≈ 0.0347 µM)	88.2	2.64 (≈ 4.63 µM)					
CCN1CCN(c2nc(Nc3ccc(Nc4ccnc5cc(Cl)ccc45)cc3)nc(N3CCCc4ccccc43)n2)CC1	0.0208 (≈ 0.0352 µM)	0.0116 (≈ 0.0197 µM)	36	6.55 (≈ 11.1 µM)		77.8	99	inactive	inactive
CCN1CCN(c2nc(Nc3ccc(Nc4ccnc5cc(Cl)ccc45)cc3)nc(Nc3ccc(OC)cc3)n2)CC1	0.00426 (≈ 0.00732 µM)	0.00308 (≈ 0.00529 µM)	75.1	2.08 (≈ 3.57 µM)					
CCN1CCN(c2nc(Nc3ccc(Nc4ccnc5cc(Cl)ccc45)cc3)nc(Nc3cccc(Cl)c3)n2)CC1	0.00211 (≈ 0.0036 µM)	0.00496 (≈ 0.00846 µM)	318	2.06 (≈ 3.51 µM)	74.5				
Clc1cccc(Nc2nc(NCCN3CCOCC3)nc(Nc3ccc(Nc4ccnc5cc(Cl)ccc45)cc3)n2)c1	0.0306 (≈ 0.0508 µM)	0.00649 (≈ 0.0108 µM)	101	2.01 (≈ 3.34 µM)					
Clc1ccc2c(Nc3ccc(Nc4nc(NCCN5CCOCC5)nc(N5CCOCC5)n4)cc3)ccnc2c1	0.00587 (≈ 0.0104 µM)	0.0532 (≈ 0.0946 µM)	41.6	9.82 (≈ 17.5 µM)					
Clc1ccc2c(Nc3ccc(Nc4nc(NCCCN5CCOCC5)nc(N5CCCc6ccccc65)n4)cc3)ccnc2c1	0.0147 (≈ 0.0236 µM)	> 0.5	440	2.4 (≈ 3.86 µM)					
COc1ccc(Nc2nc(NCCCN3CCOCC3)nc(Nc3ccc(Nc4ccnc5cc(Cl)ccc45)cc3)n2)cc1OC	0.00458 (≈ 0.00713 µM)	0.0026 (≈ 0.00405 µM)	413	2.3 (≈ 3.58 µM)					
Clc1ccc2c(Nc3ccc(Nc4nc(NCCN5CCOCC5)nc(N5CCCc6ccccc65)n4)cc3)ccnc2c1	0.0174 (≈ 0.0285 µM)	0.275 (≈ 0.452 µM)	588	2.31 (≈ 3.8 µM)					
CN1CCN(c2nc(Nc3ccc(F)cc3)nc(Nc3ccc(Nc4ccnc5cc(Cl)ccc45)cc3)n2)CC1	0.00897 (≈ 0.0161 µM)	0.00206 (≈ 0.0037 µM)	122	2.08 (≈ 3.74 µM)			100	inactive	
Clc1ccc2c(Nc3ccc(Nc4nc(NCCCN5CCOCC5)nc(N5CCc6ccccc6C5)n4)cc3)ccnc2c1	0.0203 (≈ 0.0327 µM)	0.0555 (≈ 0.0892 µM)	436	2.09 (≈ 3.36 µM)					
COc1cccc(Nc2nc(NCCCN3CCOCC3)nc(Nc3ccc(Nc4ccnc5cc(Cl)ccc45)cc3)n2)c1	0.00298 (≈ 0.00487 µM)		2500	3.49 (≈ 5.7 µM)					
CCN1CCN(c2nc(Nc3ccc(Nc4ccnc5cc(Cl)ccc45)cc3)nc(Nc3ccc(OC)c(OC)c3)n2)CC1	0.00258 (≈ 0.00421 µM)	0.0023 (≈ 0.00376 µM)	624	2.45 (≈ 4 µM)	85.5				
